Measurements taken from ChEMBL document CHEMBL4152336, “Optimization of the first small-molecule relaxin/insulin-like family peptide receptor (RXFP1) agonists: Activation results in an antifibrotic gene expression profile” (Eur J Med Chem, 2018).
Activity calls are given as the source filed them. No cut-off for these calls is given here.

What was measured:
Homo sapiens [1] = species on record: Homo sapiens; test: Down regulation of ACTA2 gene expression in human HSC at 5 uM after 24 to 72 hrs by RT-qPCR analysis; type: functional
Mus musculus [2] = test: Toxicity in C57/BL6 mouse assessed as body weight at 90 mg/kg, po treated for 5 days measured at day 4 post last dose (reference value: 20.1 +/- 2.8 g); type: organism-based; conditions: in vivo, 120 h
Mus musculus [3] = test: Toxicity in C57/BL6 mouse assessed as body weight at 3000 mg/kg, po treated for 5 days measured at day 2 post last dose (reference value: 19.8 +/- 2.3 g); type: organism-based; conditions: in vivo, 120 h
Mus musculus [4] = test: Toxicity in C57/BL6 mouse at 3 to 30 mg/kg, po; type: organism-based; conditions: in vivo
[5] = Drug level in C57/BL6 mouse heart at 3 mg/kg, iv after 7 hrs; type: ADME, organism-based; conditions: in vivo
[6] = Drug level in C57/BL6 mouse heart at 3 mg/kg, iv after 0.08 hrs; type: ADME, organism-based; conditions: in vivo
Mus musculus [7] = test: Toxicity in C57/BL6 mouse assessed as body weight at 3000 mg/kg, po treated for 5 days measured at day 7 post last dose (reference value: 20.6 +/- 2.9 g); type: organism-based; conditions: in vivo, 120 h
Mus musculus [8] = test: Toxicity in C57/BL6 mouse at 3 to 30 mg/kg, iv; type: organism-based; conditions: in vivo
Mus musculus [9] = test: Toxicity in C57/BL6 mouse assessed as body weight at 3000 mg/kg, po treated for 5 days measured at day 3 post last dose (reference value: 19.8 +/- 2.5 g); type: organism-based; conditions: in vivo, 120 h
Mus musculus [10] = test: Toxicity in C57/BL6 mouse assessed as body weight at 90 mg/kg, po treated for 5 days measured at day 8 post last dose (reference value: 20.6 +/- 2.8 g); type: organism-based; conditions: in vivo, 120 h
Mus musculus [11] = test: Toxicity in C57/BL6 mouse assessed as body weight at 90 mg/kg, po treated for 5 days measured at day 5 post last dose (reference value: 20.3 +/- 2.8 g); type: organism-based; conditions: in vivo, 120 h
Mus musculus [12] = test: Toxicity in C57/BL6 mouse assessed as body weight at 300 mg/kg, po treated for 5 days measured at day 4 post last dose (reference value: 20.1 +/- 2.8 g); type: organism-based; conditions: in vivo, 120 h
Mus musculus [13] = test: Toxicity in C57/BL6 mouse assessed as mouse death at 90 to 3000 mg/kg, po treated for 5 days measured at day 5 post last dose; type: organism-based; conditions: in vivo, 120 h
[14] = Drug level in C57/BL6 mouse heart at 30 mg/kg, po after 1.5 hr; type: ADME, organism-based; conditions: in vivo
Mus musculus [15] = test: Toxicity in C57/BL6 mouse assessed as body weight at 3000 mg/kg, po treated for 5 days measured at day 1 post last dose (reference value: 20.3 +/- 2.6 g); type: organism-based; conditions: in vivo, 120 h
Homo sapiens [16] = species on record: Homo sapiens; test: Down regulation of CTGF gene expression in human HSC at 5 uM after 24 to 72 hrs by RT-qPCR analysis; type: functional
[17] = Drug level in C57/BL6 mouse heart at 30 mg/kg, po after 3 hrs; type: ADME, organism-based; conditions: in vivo
Mus musculus [18] = test: Toxicity in C57/BL6 mouse assessed as body weight at 3000 mg/kg, po treated for 5 days measured at day 4 post last dose (reference value: 20.1 +/- 2.8 g); type: organism-based; conditions: in vivo, 120 h

CC(C)Oc1ccccc1C(=O)Nc1ccccc1C(=O)Nc1cccc(S(=O)(=O)C(F)(F)F)c1
Activity (Homo sapiens [1]): Active
Activity (Mus musculus [2]): 20 g
Activity (Mus musculus [3]): 20.6 g
Activity (Mus musculus [4]): Non-Toxic
Drug uptake [5]: 0.394 µmol/kg
Drug uptake [6]: 4.12 µmol/kg
Activity (Mus musculus [7]): 21.2 g
Activity (Mus musculus [8]): Non-Toxic
Activity (Mus musculus [9]): 20.6 g
Activity (Mus musculus [10]): 20.6 g
Activity (Mus musculus [11]): 20 g
Activity (Mus musculus [12]): 20.4 g
Activity (Mus musculus [13]): Non-Toxic
Drug uptake [14]: 2.026 µmol/kg
Activity (Mus musculus [15]): 20.6 g
Activity (Homo sapiens [16]): Active
Drug uptake [17]: 0.995 µmol/kg
Activity (Mus musculus [18]): 20.7 g
